From publication PMC5506657, “Improvement in phosphate acquisition and utilization by a secretory purple acid phosphatase (OsPAP21b) in rice” (Plant Biotechnology Journal, 2017)

Columns and labels:
OsPAP21b [1] = settings: 10 mM pNPP; 0 to 25 mM NaH2PO4; 5 mM MgCl2, 50 mM sodium acetate pH 5.0, 37 °C; reaction product as inhibitor
OsPAP21b [2] = assay: released Pi by vanadomolybdate; Lineweaver-Burk; type: biochemical, Oryza sativa; settings: 5 mM MgCl2, 50 mM sodium acetate pH 5.0, 37 °C; 0.1-100 mM substrate

Row | SMILES | IC50 (OsPAP21b [1]) [mM] | Km (OsPAP21b [2]) [µM]
1 | O=P(O)(O)O [Pi] | 5.09 ± 1.34 | 
2 | O=[N+]([O-])c1ccc(OP(=O)(O)O)cc1 [pNPP] |  | 90 ± 10
3 | Nc1ncnc2c1ncn2[C@@H]1O[C@H](COP(=O)(O)OP(=O)(O)O)[C@@H](O)[C@H]1O [ADP] |  | 77 ± 4
